Data: ChEMBL document CHEMBL3046521, “Synthesis and antitumor activity of (4-hydroxyphenyl)[5-substituted alkyl/aryl)-2-thioxo-1,3,4-thiadiazol-3-yl]methanone and [(3,4-disubstituted)-1,3-thiazol-2ylidene]-4-hydroxybenzohydrazide” (2011)

Legend:
Format in all cases: functional
[1] = system: KM12; experiment: Cytotoxicity against Homo sapiens (human) KM12 cells after 48 hr by sulforhodamine B assay; settings: KM12, 48 h; for TGI: read-out: pTGI (converted)
[2] = system: HCT-116; experiment: Cytotoxicity against Homo sapiens (human) HCT116 cells after 48 hr by sulforhodamine B assay; settings: HCT-116, 48 h; for TGI: read-out: pTGI (converted)
[3] = system: HCC 2998; experiment: Cytotoxicity against Homo sapiens (human) HCC2998 cells after 48 hr by sulforhodamine B assay; settings: HCC 2998, 48 h; for TGI: read-out: pTGI (converted)
[4] = system: NCI-H522; experiment: Cytotoxicity against Homo sapiens (human) NCI-H522 cells after 48 hr by sulforhodamine B assay; settings: NCI-H522, 48 h; for TGI: read-out: pTGI (converted)
[5] = system: NCI-H460; experiment: Cytotoxicity against Homo sapiens (human) NCI-H460 cells after 48 hr by sulforhodamine B assay; settings: NCI-H460, 48 h; for TGI: read-out: pTGI (converted)
[6] = system: NCI-H322M; experiment: Cytotoxicity against Homo sapiens (human) NCI-H322M cells after 48 hr by sulforhodamine B assay; settings: for TGI: read-out: pTGI (converted)
[7] = system: NCI-H226; experiment: Cytotoxicity against Homo sapiens (human) NCI-H226 cells after 48 hr by sulforhodamine B assay; settings: NCI-H226, 48 h; for TGI: read-out: pTGI (converted)
[8] = system: HOP-92; experiment: Cytotoxicity against Homo sapiens (human) HOP92 cells after 48 hr by sulforhodamine B assay; settings: HOP-92, 48 h; for TGI: read-out: pTGI (converted)
[9] = system: EKVX; experiment: Cytotoxicity against Homo sapiens (human) EKVX cells after 48 hr by sulforhodamine B assay; settings: for TGI: read-out: pTGI (converted)
[10] = system: SR; experiment: Cytotoxicity against Homo sapiens (human) SR cells after 48 hr by sulforhodamine B assay; settings: for TGI: read-out: pTGI
[11] = system: MOLT-4; experiment: Cytotoxicity against Homo sapiens (human) MOLT4 cells after 48 hr by sulforhodamine B assay; settings: MOLT-4, 48 h; for TGI: read-out: pTGI (converted)
[12] = system: HL-60(TB); experiment: Cytotoxicity against Homo sapiens (human) HL-60(TB) cells after 48 hr by sulforhodamine B assay; settings: HL-60, 48 h; for CC50: read-out: pLC50 (the source's name) (converted); for TGI: read-out: pTGI (converted)
[13] = system: T47D; experiment: Cytotoxicity against Homo sapiens (human) T47D cells after 48 hr by sulforhodamine B assay; settings: for TGI: read-out: pTGI (converted)
[14] = system: BT-549; experiment: Cytotoxicity against Homo sapiens (human) BT549 cells after 48 hr by sulforhodamine B assay; settings: BT-549, 48 h; for TGI: read-out: pTGI (converted)
[15] = system: MCF7; experiment: Cytotoxicity against Homo sapiens (human) MCF7 cells after 48 hr by sulforhodamine B assay; settings: MCF7, 48 h; for TGI: read-out: pTGI (converted)
[16] = system: PC-3; experiment: Cytotoxicity against Homo sapiens (human) PC3 cells after 48 hr by sulforhodamine B assay; settings: PC-3, 48 h; for TGI: read-out: pTGI (converted)
[17] = system: SN12C; experiment: Cytotoxicity against Homo sapiens (human) SN12C cells after 48 hr by sulforhodamine B assay; settings: for TGI: read-out: pTGI (converted)
[18] = system: RXF 393; experiment: Cytotoxicity against Homo sapiens (human) RXF393 cells after 48 hr by sulforhodamine B assay; settings: RXF 393, 48 h; for TGI: read-out: pTGI (converted)
[19] = system: CAKI-1; experiment: Cytotoxicity against Homo sapiens (human) Caki1 cells after 48 hr by sulforhodamine B assay; settings: CAKI-1, 48 h; for TGI: read-out: pTGI (converted)
[20] = system: 786-0; experiment: Cytotoxicity against Homo sapiens (human) 786-0 cells after 48 hr by sulforhodamine B assay; settings: 786-0, 48 h; for TGI: read-out: pTGI (converted)
[21] = Cytotoxicity against Homo sapiens (human) NCI-ADR-RES cells after 48 hr by sulforhodamine B assay; settings: for TGI: read-out: pTGI (converted)
[22] = system: OVCAR-8; experiment: Cytotoxicity against Homo sapiens (human) OVCAR8 cells after 48 hr by sulforhodamine B assay; settings: OVCAR-8, 48 h; for TGI: read-out: pTGI (converted)
[23] = system: OVCAR-5; experiment: Cytotoxicity against Homo sapiens (human) OVCAR5 cells after 48 hr by sulforhodamine B assay; settings: OVCAR-5, 48 h; for TGI: read-out: pTGI (converted)
[24] = system: OVCAR-4; experiment: Cytotoxicity against Homo sapiens (human) OVCAR4 cells after 48 hr by sulforhodamine B assay; settings: OVCAR-4, 48 h; for TGI: read-out: pTGI (converted)
[25] = system: SK-MEL-2; experiment: Cytotoxicity against Homo sapiens (human) SK-MEL-2 cells after 48 hr by sulforhodamine B assay; settings: SK-MEL-2, 48 h; for TGI: read-out: pTGI (converted)
[26] = system: MDA-MB-435; experiment: Cytotoxicity against Homo sapiens (human) MDA-MB-435 cells after 48 hr by sulforhodamine B assay; settings: MDA-MB-435, 48 h; for TGI: read-out: pTGI (converted)
[27] = system: LOX IMVI; experiment: Cytotoxicity against Homo sapiens (human) LOXIMVI cells after 48 hr by sulforhodamine B assay; settings: for TGI: read-out: pTGI (converted)
[28] = system: U-251; experiment: Cytotoxicity against Homo sapiens (human) U251 cells after 48 hr by sulforhodamine B assay; settings: U-251, 48 h; for TGI: read-out: pTGI (converted)
[29] = system: SNB-19; experiment: Cytotoxicity against Homo sapiens (human) SNB19 cells after 48 hr by sulforhodamine B assay; settings: SNB-19, 48 h; for TGI: read-out: pTGI (converted)
[30] = system: SF-539; experiment: Cytotoxicity against Homo sapiens (human) SF539 cells after 48 hr by sulforhodamine B assay; settings: SF-539, 48 h; for TGI: read-out: pTGI (converted)
[31] = system: SF-268; experiment: Cytotoxicity against Homo sapiens (human) SF268 cells after 48 hr by sulforhodamine B assay; settings: SF-268, 48 h; for TGI: read-out: pTGI (converted)

Compound: Cc1ccc(-c2cs/c(=N\NC(=O)c3ccc(O)cc3)n2-c2c(C)cccc2C)cc1
- GI50 [1]: 18.2 µM
- LC50 [1]: > 100 µM
- TGI [1]: 89.1 µM
- GI50 [2]: 22.9 µM
- LC50 [2]: > 100 µM
- TGI [2]: > 100 µM
- GI50 [3]: 15.5 µM
- LC50 [3]: > 100 µM
- TGI [3]: 43.7 µM
- GI50 [4]: 20.9 µM
- LC50 [4]: > 100 µM
- TGI [4]: > 100 µM
- GI50 [5]: 14.8 µM
- LC50 [5]: > 100 µM
- TGI [5]: 72.4 µM
- GI50 [6]: 35.5 µM
- LC50 [6]: > 100 µM
- TGI [6]: > 100 µM
- GI50 [7]: 26.3 µM
- LC50 [7]: > 100 µM
- TGI [7]: > 100 µM
- GI50 [8]: 1.32 µM
- LC50 [8]: > 100 µM
- TGI [8]: 26.3 µM
- GI50 [9]: 25.1 µM
- LC50 [9]: > 100 µM
- TGI [9]: > 100 µM
- GI50 [10]: 16.2 µM
- LC50 [10]: > 100 µM
- TGI [10]: > 100 µM
- GI50 [11]: 13.5 µM
- LC50 [11]: > 100 µM
- TGI [11]: 57.5 µM
- GI50 [12]: 11.5 µM
- CC50 [12]: > 100 µM
- TGI [12]: 64.6 µM
- GI50 [13]: 12.9 µM
- LC50 [13]: > 100 µM
- TGI [13]: 63.1 µM
- GI50 [14]: 21.9 µM
- LC50 [14]: > 100 µM
- TGI [14]: > 100 µM
- GI50 [15]: 23.4 µM
- LC50 [15]: > 100 µM
- TGI [15]: 95.5 µM
- GI50 [16]: 11 µM
- LC50 [16]: > 100 µM
- TGI [16]: 91.2 µM
- GI50 [17]: 25.7 µM
- LC50 [17]: > 100 µM
- TGI [17]: > 100 µM
- GI50 [18]: 38 µM
- LC50 [18]: > 100 µM
- TGI [18]: > 100 µM
- GI50 [19]: 10.5 µM
- LC50 [19]: > 100 µM
- TGI [19]: > 100 µM
- GI50 [20]: 22.4 µM
- LC50 [20]: > 100 µM
- TGI [20]: > 100 µM
- GI50 [21]: 21.4 µM
- LC50 [21]: > 100 µM
- TGI [21]: 69.2 µM
- GI50 [22]: 31.6 µM
- LC50 [22]: > 100 µM
- TGI [22]: > 100 µM
- GI50 [23]: 28.2 µM
- LC50 [23]: > 100 µM
- TGI [23]: > 100 µM
- GI50 [24]: 18.6 µM
- LC50 [24]: > 100 µM
- TGI [24]: > 100 µM
- GI50 [25]: 30.2 µM
- LC50 [25]: > 100 µM
- TGI [25]: 95.5 µM
- GI50 [26]: 16.6 µM
- LC50 [26]: > 100 µM
- TGI [26]: 85.1 µM
- GI50 [27]: 21.9 µM
- LC50 [27]: > 100 µM
- TGI [27]: > 100 µM
- GI50 [28]: 25.1 µM
- LC50 [28]: > 100 µM
- TGI [28]: > 100 µM
- GI50 [29]: 20.9 µM
- LC50 [29]: > 100 µM
- TGI [29]: > 100 µM
- GI50 [30]: 21.9 µM
- LC50 [30]: > 100 µM
- TGI [30]: > 100 µM
- GI50 [31]: 23.4 µM
- LC50 [31]: > 100 µM
- TGI [31]: > 100 µM

Compound: O=C(c1ccc(O)cc1)n1nc(-c2c(Cl)cccc2Cl)sc1=S
- GI50 [1]: 3.8 µM
- LC50 [1]: 41.7 µM
- TGI [1]: 14.8 µM
- GI50 [2]: 10.7 µM
- LC50 [2]: 52.5 µM
- TGI [2]: 24 µM
- GI50 [3]: 4.9 µM
- LC50 [3]: > 100 µM
- TGI [3]: 28.8 µM
- GI50 [4]: 11.7 µM
- LC50 [4]: > 100 µM
- TGI [4]: 41.7 µM
- GI50 [5]: 9.33 µM
- LC50 [5]: 75.9 µM
- TGI [5]: 26.3 µM
- GI50 [6]: 15.1 µM
- LC50 [6]: > 100 µM
- TGI [6]: 66.1 µM
- GI50 [7]: 12.9 µM
- LC50 [7]: > 100 µM
- TGI [7]: 57.5 µM
- GI50 [8]: 0.324 µM
- LC50 [8]: 43.7 µM
- TGI [8]: 7.76 µM
- GI50 [9]: 5.01 µM
- LC50 [9]: > 100 µM
- TGI [9]: 69.2 µM
- GI50 [10]: 1.51 µM
- LC50 [10]: > 100 µM
- TGI [10]: > 100 µM
- GI50 [11]: 4.47 µM
- LC50 [11]: > 100 µM
- TGI [11]: 27.5 µM
- GI50 [12]: 2 µM
- CC50 [12]: > 100 µM
- TGI [12]: 30.9 µM
- GI50 [13]: 3.89 µM
- LC50 [13]: > 100 µM
- TGI [13]: 32.4 µM
- GI50 [14]: 28.8 µM
- LC50 [14]: > 100 µM
- TGI [14]: 60.3 µM
- GI50 [15]: 11.5 µM
- LC50 [15]: 87.1 µM
- TGI [15]: 32.4 µM
- GI50 [16]: 3.31 µM
- LC50 [16]: > 100 µM
- TGI [16]: 30.2 µM
- GI50 [17]: 11.2 µM
- LC50 [17]: > 100 µM
- TGI [17]: 46.8 µM
- GI50 [18]: 17.4 µM
- LC50 [18]: > 100 µM
- TGI [18]: 51.3 µM
- GI50 [19]: 6.03 µM
- LC50 [19]: > 100 µM
- TGI [19]: 57.5 µM
- GI50 [20]: 2.34 µM
- LC50 [20]: 53.7 µM
- TGI [20]: 17 µM
- GI50 [21]: 10 µM
- LC50 [21]: > 100 µM
- TGI [21]: 49 µM
- GI50 [22]: 22.9 µM
- LC50 [22]: > 100 µM
- TGI [22]: 72.4 µM
- GI50 [23]: 19.5 µM
- LC50 [23]: > 100 µM
- TGI [23]: 61.7 µM
- GI50 [24]: 11.5 µM
- LC50 [24]: > 100 µM
- TGI [24]: 77.6 µM
- GI50 [25]: 14.5 µM
- LC50 [25]: 95.5 µM
- TGI [25]: 37.2 µM
- GI50 [26]: 3.72 µM
- LC50 [26]: > 100 µM
- TGI [26]: 31.6 µM
- GI50 [27]: 10 µM
- LC50 [27]: 75.9 µM
- TGI [27]: 27.5 µM
- GI50 [28]: 11.5 µM
- LC50 [28]: 91.2 µM
- TGI [28]: 32.4 µM
- GI50 [29]: 15.1 µM
- LC50 [29]: > 100 µM
- TGI [29]: 67.6 µM
- GI50 [30]: 14.8 µM
- LC50 [30]: 58.9 µM
- TGI [30]: 29.5 µM
- GI50 [31]: 7.59 µM
- LC50 [31]: > 100 µM
- TGI [31]: 34.7 µM
